# Results as given in patent US4992449A, “7-(substituted)cycloalkylamino-1 -(substituted)-6-fluoro-1,4-dihydro-4-oxo-3-quinolinecarboxylic acids” (American Cyanamid Company, priority 1990, dated 1991).
# Like-named read-outs stand apart in the source and are kept apart here.
# Legend:
# Assay in all cases: In vitro antibacterial MIC, agar plate dilution
# Format in all cases: cell-based
# [1] = test system: Serratia marcescens MOR 84-41; settings: MOR8441, Mueller-Hinton agar, 10^4 CFU, 18 hours, 35° C.
# Procedure, shortened: (§1)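 Each organism, roughly 10^4 colony forming units, is stamped onto Mueller-Hinton agar plates carrying graded compound levels. After incubation (35° C, 18 h), MIC in mcg/ml is taken where visible growth is first inhibited.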
# [2] = test system: Pseudomonas aeruginosa VGH 84-4; settings: Pseudomonas aeruginosa, VGH844, 18 h, Table II, read-out: MIC
# Procedure, shortened: as §1
# [3] = test system: Staphylococcus aureus ATCC 29213; settings: Staphylococcus aureus, ATCC29213, 18 h, read-out: MIC
# Procedure, shortened: as §1
# [4] = test system: Proteus rettgeri CMC 84-41; settings: Providencia rettgeri, CMC8441, 18 h, Table II, read-out: MIC
# Procedure, shortened: as §1
# [5] = test system: Staphylococcus aureus CMC 83-131; settings: CMC83131, Mueller-Hinton agar, 10^4 CFU, 18 hours, 35° C.
# Procedure, shortened: as §1
# [6] = test system: Enterobacter cloacae K 84-10; settings: K8410, Mueller-Hinton agar, 10^4 CFU, 18 hours, 35° C.
# Procedure, shortened: as §1
# [7] = test system: Escherichia coli MOR 84-20; settings: MOR8420, Mueller-Hinton agar, 10^4 CFU, 18 hours, 35° C.
# Procedure, shortened: as §1
# Staphylococcus SSC 82-56 = settings: SSC8256, 18 h, Table II
# Procedure, shortened: as §1
# [8] = test system: Serratia marcescens K 84-18; settings: K8418, 18 h, Table II, read-out: MIC
# Procedure, shortened: as §1
# [9] = test system: Streptococcus faecalis VGH 84-65; settings: Enterococcus faecalis, VGH8465, 18 h, Table II, read-out: MIC
# Procedure, shortened: as §1
# [10] = test system: Pseudomonas aeruginosa VGH 84-16; settings: VGH8416, Mueller-Hinton agar, 10^4 CFU, 18 hours, 35° C.
# Procedure, shortened: as §1
# [11] = test system: Enterobacter cloacae MOR 84-30; settings: MOR8430, Mueller-Hinton agar, 10^4 CFU, 18 hours, 35° C.
# Procedure, shortened: as §1
# [12] = test system: Staphylococcus aureus NEMC 87-59; settings: NEMC8759, 18 h, Table II
# Procedure, shortened: as §1
# [13] = Table I, Mueller-Hinton agar, 10^4 CFU, 18 hours, 35° C.
SMILES,MIC [1],MIC [2],"MIC [3, 13]",MIC ([3]; Table II),MIC [4],MIC [5],MIC [6],MIC [7],MIC (Staphylococcus SSC 82-56),MIC [8],MIC [9],MIC [10],MIC [11],MIC [12]
N[C@H]1CCC[C@H]1Nc1cc2c(cc1F)c(=O)c(C(=O)O)cn2-c1ccc(F)cc1 (relative stereo) [Example 3],4 µg/mL,16 µg/mL,4 µg/mL,4 µg/mL,4 µg/mL,> 16 µg/mL,2 µg/mL,2 µg/mL,2 µg/mL,2 µg/mL,64 µg/mL,> 16 µg/mL,8 µg/mL,4 µg/mL
"CCn1cc(C(=O)O)c(=O)c2cc(F)c(N[C@@H]3CCC[C@@H]3N)cc21 (relative stereo) [Example 4, Cis-7-[(2-Aminocyclopentyl)amino]-1-ethyl-6-fluoro-1,4-dihydro-4-oxo-3-quinolinecarboxylic acid]",1 µg/mL,64 µg/mL,4 µg/mL,128 µg/mL,8 µg/mL,,1 µg/mL,1 µg/mL,,4 µg/mL,32 µg/mL,> 16 µg/mL,4 µg/mL,
